pEC50: −log10 of the molar value. Like-named read-outs stand apart in the source and are kept apart here.
Tested on: HIV-1 Strain IIIB
Assay: Double combination dose response matrices in MT2-cells infected with HIV-1 Strain IIIB (MacSynergy II / Greco analysis)
Format: cell-based
Conditions: Greco model estimate; for pEC50: MT2-cells, HIV-1 IIIB, medium with 10% fetal bovine serum plus α1 acid glycoprotein (1 mg/ml) and albumin (40 mg/ml)
Description: Triplicate in vitro dose response matrices were prepared using MT2-cells infected with HIV-1 Strain IIIB. In order to account for the effects of protein binding, tissue culture medium with 10% fetal bovine serum was supplemented with the human serum proteins α1, acid glycoprotein (1 mg/ml) and albumin (40 mg/ml). The 3-D drug interaction surface for 1592U89 and 141W94 was constructed using the program MacSynergy II. As analyzed relative to a Bliss Independence null reference model, this combination was synergistic with volumes of synergy exceeding 100 (99% confidence). Analysis of the data set with a fully parametric form of an equation for the quantitation of drug interaction developed by Greco et al. also indicated synergy. The parameters, with 95% confidence intervals are shown below: EC50 is the half maximal response concentration. “m” is the slope parameter. Alpha is the synergy parameter.

| SMILES | pEC50 (Human immunodeficiency virus 1, read-out: EC50,141w) | m141w (slope parameter) (same matrix) | pEC50 (read-out: EC50,1592u) | m1592u (slope parameter) (same matrix) |
| --- | --- | --- | --- | --- |
| CC(C)CN(C[C@@H](O)[C@H](Cc1ccccc1)NC(=O)O[C@H]1CCOC1)S(=O)(=O)c1ccc(N)cc1 (relative stereo) [141W94, 3S-[3R*(1R*,2S*)]-[3-[[(4-aminophenyl)sulphonyl](2-methylpropyl)-amino]-2-hydroxy-1-phenylmethyl)propyl]carbamic acid, tetrahydro-3-furanyl ester] | 6.40 | 2.20 |  |  |
| Nc1nc(NC2CC2)c2ncn([C@H]3C=C[C@@H](CO)C3)c2n1 (relative stereo) [1592U89, (1S,4R)-cis-4-[2-amino-6-(cyclopropylamino)-9H-purin-9-yl]-2-cyclopentene-1-methanol] |  |  | 6.20 | 1.60 |
